Test results reported in patent US12306178B2 (priority 2022, dated 2025).

Key:
[1] = tested on: AFB1-ScFV-AP bifunctional fusion protein; type: binding
[2] = tested on: DON-ScFV-AP bifunctional fusion protein; type: binding

Work on `CC(=O)OC[C@]12[C@H](O)C(=O)C(C)=C[C@H]1O[C@@H]1[C@H](O)C[C@@]2(C)[C@]12CO2` [15-ADON, 15-acetyldeoxynivalenol] yielded an IC50 [1] greater than 100.4 ppm and an IC50 [2] of 64 ppb.
`C[C@H]1CCCC(=O)CCC/C=C/c2cc(O)cc(O)c2C(=O)O1` [ZEN, zearalenone] gave an IC50 [1] greater than 20 ppm and an IC50 [2] greater than 20 ppm.
For `CC(=O)O[C@@H]1C[C@]2(C)[C@@]3(CO)[C@H](O)C(=O)C(C)=C[C@H]3O[C@H]1[C@@]21CO1` [3-ADON, 3-acetyldeoxynivalenol], the IC50 [1] was greater than 100.1 ppm, the IC50 [2] was 2.3 ppb and the “cross-reaction (in words)” value [2] was “obvious cross-reaction”.
`CCCC[C@@H](C)[C@@H](OC(=O)C[C@@H](CC(=O)O)C(=O)O)[C@H](C[C@@H](C)CCCCCC[C@@H](O)C[C@H](O)[C@H](C)N)OC(=O)C[C@@H](CC(=O)O)C(=O)O` [FB2, fumonisin B2] showed an IC50 [1] greater than 28.6 ppm.
Compound aflatoxin B2 [AFB2] has an IC50 [1] of 1.9 ppb.
`CC1=C[C@H]2O[C@@H]3[C@H](O)[C@@H](O)[C@](C)([C@@]2(CO)[C@H](O)C1=O)[C@]31CO1` [NIV, nivalenol] was tested, and the IC50 [1] was greater than 100.4 ppm and the IC50 [2] was 610 ppb.
`C[C@@H]1Cc2c(Cl)cc(C(=O)N[C@@H](Cc3ccccc3)C(=O)O)c(O)c2C(=O)O1` [OTA, ochratoxin A] was tested, and the IC50 [1] was greater than 1.9 ppm and the IC50 [2] was greater than 1.9 ppm.
With `CCCC[C@@H](C)[C@@H](OC(=O)C[C@@H](CC(=O)O)C(=O)O)[C@H](C[C@@H](C)C[C@H](O)CCCCCC[C@H](O)[C@H](C)N)OC(=O)C[C@@H](CC(=O)O)C(=O)O` [FB3, fumonisin B3] the IC50 [1] was greater than 28.6 ppm.
With aflatoxin G1 [AFG1] the IC50 [1] was 2.1 ppb.
Compound `CCCC[C@@H](C)[C@@H](OC(=O)C[C@@H](CC(=O)O)C(=O)O)[C@H](C[C@@H](C)C[C@H](O)CCCC[C@@H](O)C[C@H](O)[C@H](C)N)OC(=O)C[C@@H](CC(=O)O)C(=O)O` [FB1, fumonisin B1] has an IC50 [1] greater than 28.6 ppm.
Compound aflatoxin B1 [AFB1] has an IC50 [1] of 0.5 ppb and an IC50 [2] greater than 2 ppm.
aflatoxin G2 [AFG2] gave an IC50 [1] of 8.1 ppb.
With `CC1=C[C@H]2O[C@@H]3[C@H](O[C@@H]4O[C@H](CO)[C@@H](O)[C@H](O)[C@H]4O)C[C@](C)([C@@]2(CO)[C@H](O)C1=O)[C@]31CO1` [DON-3G, deoxynivalenol-3-glucoside] the IC50 [1] was greater than 50 ppm.
Compound `CC1=C[C@H]2O[C@@H]3[C@H](O)C[C@](C)([C@@]2(CO)[C@H](O)C1=O)[C@]31CO1` [DON, Deoxynivalenol] has an IC50 [1] greater than 10 ppm and an IC50 [2] of 2.4 ppb.
In the case of T-2 toxin, the IC50 [1] is reported as greater than 100 ppm and the IC50 [2] is reported as greater than 100 ppm.
